Tested on: angiotensin II-induced pressor responses
Assay: Test C: antagonism of angiotensin II-induced pressor responses in terminally-anaesthetised or conscious rats
Assay type: in vivo
Conditions: Rattus norvegicus, iv; i.v. administration; read-out: ED₅₀
Description: This in vivo test involves using terminally-anaesthetised or conscious rats in which an arterial catheter has been implanted under anaesthesia for the measurement of changes in blood pressure. The AII antagonistic effects of the test compound following oral or parenteral administration, are assessed against angiotensin II-induced pressor responses. To ensure that the effect is specific, the effect of the test compound on vasopressin-induced pressor responses may also be determined in the same preparation.

`Cc1cc(OCc2ccc(-c3ccccc3-c3nnn[nH]3)cc2)c2ccccc2n1.Cl` [2-methyl-4-[(2′-(1H-tetrazol-5-yl)biphenyl-4-yl)methoxy]quinoline hydrochloride] gave an ED50 of 0.5 mg/kg.
